Data as given in PMC8209004, “Structural basis of GTPase-mediated mitochondrial ribosome biogenesis and recycling” (Nature Communications, 2021).

Target: T1, GTPBP6 (Homo sapiens, UniProt O43824)
T1 construct: Δ43GTPBP6 (first 43 residues removed); 6xHis-MBP tag cleaved with TEV; expressed in E. coli BL21 (DE3) RIL; modelled residues 94-515
T1 sequence (O43824 44-516): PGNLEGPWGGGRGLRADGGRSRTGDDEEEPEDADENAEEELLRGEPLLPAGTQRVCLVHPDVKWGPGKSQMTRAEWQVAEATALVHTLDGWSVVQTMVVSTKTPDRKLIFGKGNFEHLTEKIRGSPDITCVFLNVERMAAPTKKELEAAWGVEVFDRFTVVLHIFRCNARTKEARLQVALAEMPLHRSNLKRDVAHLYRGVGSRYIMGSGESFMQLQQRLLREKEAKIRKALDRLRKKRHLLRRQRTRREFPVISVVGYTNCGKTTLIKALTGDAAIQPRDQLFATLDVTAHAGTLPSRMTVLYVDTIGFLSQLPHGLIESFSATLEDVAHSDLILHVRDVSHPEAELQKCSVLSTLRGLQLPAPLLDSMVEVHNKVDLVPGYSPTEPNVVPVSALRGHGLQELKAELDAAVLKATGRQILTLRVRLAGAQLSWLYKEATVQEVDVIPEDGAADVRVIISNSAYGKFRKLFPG
Assay: cryo-EM structure of GTPBP6-bound mtLSU
Assay type: binding
Conditions: bound in GTPase domain; 1 mM GTP and 1 mM ATP, pH 7.4, 4 °C; biogenesis intermediate at 2.6 Å and mature mtLSU at 2.7 Å

Q: With `Nc1nc2c(ncn2[C@@H]2O[C@H](COP(=O)(O)OP(=O)(O)OP(=O)(O)O)[C@@H](O)[C@H]2O)c(=O)[nH]1` [GTP] as the molecule, how does the “cryo-EM structure of GTPBP6-bound mtLSU” value read?
A: Its value is “shows clear density for a bound GTP molecule”.
